Reference: patent US4711902A, “Medicament formulation” (Bayer Aktiengesellschaft, priority 1983, dated 1987)
Where two headings read alike, the source gives them in different places.

Experiments:
[1] = lipid content 20% by weight, room temperature
Text: Ester mixture A: a glycerol triesters of caprylic acid (70%) and capric acid (30%)
Ester mixture D: 50% soy bean oil and 50% glycerol triesters of caprylic acid (70%) and capric acid (30%)

[2] = lipid content 20%, room temperature
[3] = Ester mixture A (glycerol triesters of caprylic acid 70% and capric acid 30%)
[4] = Ester mixture B (propylene glycol diesters of caprylic acid 75% and capric acid 25%)
[5] = Ester mixture C (75% glycerol triesters, 12.5% diesters, 12.5% monoesters of caprylic/capric acid)
[6] = Ester mixture D (50% soy bean oil and 50% glycerol triesters of caprylic acid 70% and capric acid 30%)

| Solubility of the medicament in the emulsion [1, 3] | Solubility of the medicament in the emulsion [1, 4] | Solubility of the medicament in the emulsion [1, 5] | Solubility of the medicament in the emulsion [1, 6] | Solubility of the medicament in the emulsion ([1]; Soy bean oil) | Solubility of nimodipine in soy bean oil emulsion ([2]; benzyl alcohol 0% W/W) | Solubility of nimodipine in soy bean oil emulsion ([2]; benzyl alcohol 2% W/W) | Solubility of nimodipine in soy bean oil emulsion ([2]; benzyl alcohol 4% W/W) | Solubility of nimodipine in soy bean oil emulsion ([2]; benzyl alcohol 5% W/W) | Compound |
| --- | --- | --- | --- | --- | --- | --- | --- | --- | --- |
| 0.06 % (W/W) | 0.06 % (W/W) | 0.32 % (W/W) | 0.02 % (W/W) | 0.01 % (W/W) |  |  |  |  | CC(c1ccc(Cl)c(Cl)c1)N1N=C(N)CC1=O (stereo not shown) [Muzolimine] |
| 0.16 % (W/W) | 0.26 % (W/W) | 0.50 % (W/W) | 0.08 % (W/W) | 0.04 % (W/W) | 0.04% | 0.08% | 0.16% | 0.18% | COCCOC(=O)C1=C(C)NC(C)=C(C(=O)OC(C)C)C1c1cccc([N+](=O)[O-])c1 (stereo not shown) [Nimodipine] |
| 0.08 % (W/W) | 0.12 % (W/W) | 0.14 % (W/W) | 0.05 % (W/W) | 0.03 % (W/W) |  |  |  |  | CCOC(=O)C1=C(C)NC(C)=C(C(=O)OC)C1c1cccc([N+](=O)[O-])c1 (stereo not shown) [Nitrendipine] |

| Compound | Solubility of the medicament in the emulsion [1, 3] | Solubility of the medicament in the emulsion [1, 4] | Solubility of the medicament in the emulsion [1, 5] | Solubility of the medicament in the emulsion [1, 6] | Solubility of the medicament in the emulsion ([1]; Soy bean oil) | Solubility of nimodipine in soy bean oil emulsion ([2]; benzyl alcohol 0% W/W) | Solubility of nimodipine in soy bean oil emulsion ([2]; benzyl alcohol 2% W/W) | Solubility of nimodipine in soy bean oil emulsion ([2]; benzyl alcohol 4% W/W) | Solubility of nimodipine in soy bean oil emulsion ([2]; benzyl alcohol 5% W/W) |
| --- | --- | --- | --- | --- | --- | --- | --- | --- | --- |
| COC(=O)C1=C(C)NC(C)=C(C(=O)OCC(C)C)C1c1ccccc1[N+](=O)[O-] (stereo not shown) [Nisoldipine] | 0.14 % (W/W) | 0.18 % (W/W) | 0.20 % (W/W) | 0.08 % (W/W) | 0.04 % (W/W) |  |  |  |  |
| CCCOC(=O)Cc1ccc(OCC(=O)N(CC)CC)c(OC)c1 [Propanidide] |  |  |  |  | 2.80 % (W/W) |  |  |  |  |
